In data set [1] the test system is GSK-3. Particulars: literature radiotracers; SB-216763 in rodents and non-human primates; cited from earlier work.
In data set [2] the test system is other structurally similar kinases. Conditions: cited from earlier work.
Data set [3] can be described thus: Determination of Log D7.4 (1-octanol/PBS shake flask, gamma counting). Type of data set: physicochemical. Conditions: 1-octanol / PBS buffer pH 7.4, n=7. The method, then: The measurement of lipophilicity was carried out using literature procedure. Purified and reformulated [^11C] labelled compound (1) (˜50 μL) was added to a separating funnel containing PBS buffer (pH 7.4) and 1-octanol (pre-saturated with PBS buffer) (˜20 mL each). The octanol layer was collected and dispensed into 8 centrifuge tubes (2 mL each) containing PBS buffer (2 mL each). The tubes were mixed by vortex for 2 min and then centrifuged for 5 min. Approximately 0.5 mL of the octanol layer and 1.0 mL of the aqueous from each centrifuge tube was then transferred to pre-weighed test tubes (16 in total). The tubes were capped and assayed using an automated gamma counter. The tubes were then uncapped and weighed to determine the total volume of the liquid in each. The log D7.4 of [^11C] labelled compound (1) was determined to be 2.14 (n=7).

The subject of data set [4] is GSK-3. The data set is described as follows: PET imaging in rat. Type of data set: in vivo. Conditions: rat (n=1), bolus i.v., at 1-2 min.
In data set [5] the test system is GSK-3. The data set is described as follows: PET imaging in rhesus monkeys. In kind it is in vivo. Conditions: for brain penetration and specific binding (in words): PET imaging in animals / non-human primate brain. The method, then: To determine the in vivo distribution and pharmacokinetic profile of compound (1) in higher species of nonhuman primates, compound (1) was radiolabelled with carbon-11 and the permeability of compound (1) was evaluated in the living brain using positron emission tomography. [^11C] labelled compound (1) was synthesized in 5% uncorrected radiochemical yield (relative to [^11C]CO2) by reaction of the corresponding phenolic precursor in the presence of tetrabutylammonium hydroxide in DMF with [^11C]CH3I with specific activity >2 Ci/μmol (n=15).
Bolus i.v. administration of [^11C]-labelled compound (1) in rhesus monkeys (5-7 mCi) reached a whole brain peak uptake (2 SUV) with fairly uniform brain distribution followed by a fast clearance (1 SUV at 40 min). […] Liang et al., “Discovery of [^11C]PF-367 for neuroimaging of glycogen synthase kinase 3”, J. Nucl. Med., 2015, 56(Supp. 3), 491.

Take `[11CH3]n1cc(C2=C(c3ccc(Cl)cc3Cl)C(=O)NC2=O)c2ccccc21` [[^11C]SB-216763]: the “brain uptake in vivo (in words)” value in the data set with GSK-3 [1] was “good brain uptake”. Further, the “selectivity against other structurally similar kinases (in words)” value in data set [2] is “not selective”.

By logD is commonly meant the decadic logarithm of the distribution of all forms, ionised or not, between an organic phase and buffer at a given pH. A higher logD goes with higher lipophilicity. `[11CH3]Oc1ccc(-c2ocnc2C(=O)NCCCn2cncn2)cc1Cl` [compound (2), N-(3-(1H-1,2,4-Triazol-1-yl)propyl)-5-(3-chloro-4-[^11C]methoxyphenyl)oxazole-4-carboxamide] showed a logD in data set [3] of 2.14. The maximum uptake result in the data set on GSK-3 [4] is recorded as “about 1 SUV”. Moreover, the “brain penetration and specific binding (in words)” value in the data set with GSK-3 [5] (listed as 11C-isotopologue of compound (1)) is “high brain permeability and specificity”; with GSK-3 [5] (listed as [^11C] labelled compound (1)), “confirmed brain penetration and displaceable specific binding”. In addition, the “whole brain peak uptake” value with GSK-3 [5] (rhesus monkeys, bolus i.v., 5-7 mCi, baseline) is on record as 2 SUV. The “brain uptake at 40 min (clearance)” value in the data set on GSK-3 [5] (rhesus monkeys, bolus i.v., baseline, 40 min) was found to be 1 SUV. The peak uptake in the data set with GSK-3 [5] (rhesus monkeys, co-administration with unlabelled compound (1) 0.1 mg/kg) is 3.5 SUV. For the same compound, in the data set with GSK-3 [5] (rhesus monkeys, co-administration with unlabelled compound (1) 0.1 mg/kg, 40 min), the “binding at 40 min in all brain regions” value amounted to 0.3 SUV.

These data come from patent US10280152B2, “Imaging of glycogen synthase kinase 3” (The General Hospital Corporation, priority 2015, dated 2019).
